Source: PubChem BioAssay (NCI)
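The compound was tested at five concentrations on cells cultured in 96-well plates, with a 48-hour exposure period. At the TGI there is no net growth.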

Legend:
Assay in all cases: inhibition of tumour cell growth, NCI panel, 48 h
NCI-H460 lung = system: NCI-H460 lung
A498 renal = system: A498 renal
SNB-78 CNS = system: SNB-78 CNS
A549 NSCLC = system: A549 NSCLC
DMS 273 small cell lung = system: DMS 273 small cell lung
IGROV1 ovarian = system: IGROV1 ovarian
UACC-257 melanoma = system: UACC-257 melanoma
HCT-116 colon = system: HCT-116 colon
DMS 114 small cell lung = system: DMS 114 small cell lung
DLD-1 colon = system: DLD-1 colon
TK-10 renal = system: TK-10 renal
LXFL 529 NSCLC = system: LXFL 529 NSCLC
UACC-62 melanoma = system: UACC-62 melanoma
M14 melanoma = system: M14 melanoma
SF-295 CNS = system: SF-295 CNS
NCI-H522 lung = system: NCI-H522 lung
NCI-H226 lung = system: NCI-H226 lung
RXF 393 renal = system: RXF 393 renal
LOX IMVI melanoma = system: LOX IMVI melanoma
OVCAR-3 ovarian = system: OVCAR-3 ovarian
MOLT-4 leukemia = system: MOLT-4 leukemia
NCI-H23 lung = system: NCI-H23 lung
M19-MEL melanoma = system: M19-MEL melanoma
OVCAR-8 ovarian = system: OVCAR-8 ovarian
HOP-62 NSCLC = system: HOP-62 NSCLC
SNB-19 CNS = system: SNB-19 CNS
786-0 renal = system: 786-0 renal
KM20L2 colon = system: KM20L2 colon
MALME-3M melanoma = system: MALME-3M melanoma
U251 CNS = system: U251 CNS
CAKI-1 renal = system: CAKI-1 renal
HCC-2998 colon = system: HCC-2998 colon
HCT-15 colon = system: HCT-15 colon
SK-MEL-28 melanoma = system: SK-MEL-28 melanoma
SF-268 CNS = system: SF-268 CNS
SNB-75 CNS = system: SNB-75 CNS
OVCAR-5 ovarian = system: OVCAR-5 ovarian
SN12C renal = system: SN12C renal
RXF-631 renal = system: RXF-631 renal
ACHN renal = system: ACHN renal
SF-539 CNS = system: SF-539 CNS
SK-MEL-2 melanoma = system: SK-MEL-2 melanoma
COLO 205 colon = system: COLO 205 colon
CCRF-CEM leukemia = system: CCRF-CEM leukemia
UO-31 renal = system: UO-31 renal
RPMI-8226 leukemia = system: RPMI-8226 leukemia
K-562 leukemia = system: K-562 leukemia
KM12 colon = system: KM12 colon
SW-620 colon = system: SW-620 colon
OVCAR-4 ovarian = system: OVCAR-4 ovarian
SK-MEL-5 melanoma = system: SK-MEL-5 melanoma
HT29 colon = system: HT29 colon
SK-OV-3 ovarian = system: SK-OV-3 ovarian
EKVX NSCLC = system: EKVX NSCLC

Measured: TGI

O=C1CCCCCCCCCCC(=O)N2CCOCCOCCN1Cc1cccc(n1)C2
> 100 µM: all assays above
